# Where a SMILES comes first, the peptide text is derived from it.
# Target: T1, hTAS1R2 + hTAS1R3 H734A^5.47 (Homo sapiens, UniProt Q7RTX0+Q8TE23, H734A)
# T1 construct: expressed in transfected cells; host or cells: HEK293T cells stably expressing G16Gust44
# T1 sequence (Q8TE23 20-839): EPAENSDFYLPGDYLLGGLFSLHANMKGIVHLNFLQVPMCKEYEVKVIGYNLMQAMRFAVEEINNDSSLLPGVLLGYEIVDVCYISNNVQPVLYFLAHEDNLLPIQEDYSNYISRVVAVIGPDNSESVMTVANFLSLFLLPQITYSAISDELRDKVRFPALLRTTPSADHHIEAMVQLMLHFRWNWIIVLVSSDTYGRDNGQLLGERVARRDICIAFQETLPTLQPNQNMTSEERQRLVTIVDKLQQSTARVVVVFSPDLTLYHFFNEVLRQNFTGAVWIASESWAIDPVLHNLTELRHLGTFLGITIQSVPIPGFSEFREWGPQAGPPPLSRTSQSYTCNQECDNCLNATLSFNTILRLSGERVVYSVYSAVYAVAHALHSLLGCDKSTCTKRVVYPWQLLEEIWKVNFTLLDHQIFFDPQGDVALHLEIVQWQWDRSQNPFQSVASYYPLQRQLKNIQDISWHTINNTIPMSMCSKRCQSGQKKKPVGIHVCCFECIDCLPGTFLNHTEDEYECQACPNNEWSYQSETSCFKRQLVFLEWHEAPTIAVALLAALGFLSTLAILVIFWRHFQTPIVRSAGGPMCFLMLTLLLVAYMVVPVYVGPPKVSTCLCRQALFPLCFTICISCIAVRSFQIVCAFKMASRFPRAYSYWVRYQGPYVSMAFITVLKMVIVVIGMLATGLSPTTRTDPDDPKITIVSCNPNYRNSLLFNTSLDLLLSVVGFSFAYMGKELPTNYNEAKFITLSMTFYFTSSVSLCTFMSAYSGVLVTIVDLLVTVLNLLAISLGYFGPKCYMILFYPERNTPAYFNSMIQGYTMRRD
# T1 sequence (Q7RTX0 21-852 H734A): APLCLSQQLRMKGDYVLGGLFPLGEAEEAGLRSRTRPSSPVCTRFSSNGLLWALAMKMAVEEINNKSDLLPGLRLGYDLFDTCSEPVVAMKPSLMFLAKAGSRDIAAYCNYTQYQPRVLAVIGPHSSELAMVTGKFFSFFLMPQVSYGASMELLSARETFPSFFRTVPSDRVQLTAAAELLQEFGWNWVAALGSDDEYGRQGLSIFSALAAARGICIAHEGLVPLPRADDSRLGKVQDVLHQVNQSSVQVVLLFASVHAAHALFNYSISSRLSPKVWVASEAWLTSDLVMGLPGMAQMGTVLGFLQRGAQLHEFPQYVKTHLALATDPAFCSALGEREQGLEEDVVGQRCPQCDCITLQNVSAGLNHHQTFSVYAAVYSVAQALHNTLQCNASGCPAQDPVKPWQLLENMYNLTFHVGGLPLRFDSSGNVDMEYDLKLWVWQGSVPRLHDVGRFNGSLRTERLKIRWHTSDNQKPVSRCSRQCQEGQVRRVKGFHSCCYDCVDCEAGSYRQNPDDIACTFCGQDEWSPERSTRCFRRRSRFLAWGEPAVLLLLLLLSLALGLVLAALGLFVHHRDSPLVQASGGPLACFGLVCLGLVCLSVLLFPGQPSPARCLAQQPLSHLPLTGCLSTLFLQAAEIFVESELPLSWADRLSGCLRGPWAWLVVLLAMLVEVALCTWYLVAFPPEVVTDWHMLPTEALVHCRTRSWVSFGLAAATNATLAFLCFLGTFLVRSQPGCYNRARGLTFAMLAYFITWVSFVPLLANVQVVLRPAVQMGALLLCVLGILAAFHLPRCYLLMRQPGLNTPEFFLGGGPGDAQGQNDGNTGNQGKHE
# Test: Calcium response (FLIPR), hTAS1R3 mutant coexpressed with hTAS1R2
# Assay type: cell-based
# Settings: for receptor response: mutant H734A^5.47; for EC50: variant H734A^5.47, n.f. = no response to any tested sweetener
# Method in brief: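 Read-out: FLIPR calcium signal as ΔF/F = (F-F0)/F0, corrected for mock-transfected cells. Cells were HEK293T stably carrying G16Gust44, transiently transfected with HSV-tagged receptor cDNAs and dye-loaded with Fluo4-AM 24 h post transfection.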
structure (smiles),measurement,value
"COc1ccc(CCC(=O)c2c(O)cc(O[C@@H]3O[C@H](CO)[C@@H](O)[C@H](O)[C@H]3O[C@@H]3O[C@@H](C)[C@H](O)[C@@H](O)[C@H]3O)cc2O)cc1O [NHDC, neohesperidin dihydrochalcone]",receptor response,did not respond
same,EC50,n.f.
CC1=CC(=O)NS(=O)(=O)O1 [acesulfame K],receptor response,did not respond
COC(=O)[C@H](Cc1ccccc1)NC(=O)[C@@H](N)CC(=O)O [aspartame] (HELM PEPTIDE1{D.F.[CO[*:1]]}$$$$V2.0),receptor response,did not respond
same,EC50,n.f.
O=S(=O)(O)NC1CCCCC1 [cyclamate],receptor response,did not respond
